Measurements as given in patent US4409210A, “Antibiotic compound” (priority 1982, dated 1983).
*1 amine or outer side, *2 acyl side, *3 side chain or, on linkers, in order; H or OH if unused. Where a SMILES comes first, the peptide text is derived from it. Bridges are numbered along the chain shown (N, C = ends). [ ]: non-standard residue; d: D form. ξ: configuration not given here. X2 = CCCCCCCCCCCC(CC(=O)[*:1])O[*:2]; ξAsp(3ξ-OH) = NC(C(=O)O)C(O)C(=O)O; X1 = O=C(C1C(O)CCN1[*:1])[*:2]

Assays:
Veillonella species = experiment: MIC summary, Veillonella; format: cell-based; settings: gram-negative cocci
Blood levels in mice = format: in vivo
Protocol: Blood levels in mice were determined following an intravenous or intramuscular administration of Bu-2517. Blood samples were collected from orbital sinuses and assayed by the paper disc-agar diffusion method using S. lutea PCI 1001 as the test organism. […] Bu-2517 was not absorbed when administered orally. T1 TABLE 7-Blood Levels in Mice? -Blood levels (mcg/ml)? -intravenous dose? intramuscular dose? -Time after? 10? 30? 10? 30? 100? -administration? mg/kg? mg/kg? mg/kg? mg/kg? mg/kg? -1 min 70 224 ? --? --? --? -5 41 162 ? --? --? --? -10 33 131 ? 11 22 --? -15 --? --? --? --? 45 -20 23 68 13 32 --? -30 18 73 14 48 45 -45 18 64 14 41 --? -1 hr 14 50 13 36 47 -1.5 7.9 32 11 35 --? -2 5.6 23 8.9 28 --? -3 3.1 14 5.3 18 55 -5 --? --? <2.0 ? 8.9 --? -7 --? --? --? 3.8 23 -10 --? --? --? --? 15 -24 --? --? --? --? <0.3 -Half life (hr.) 0.81 0.87 1.6 1.8 3.7 -AUC* (mcg.hr/ml) 39 163 ? 40 137 ? 460 ? -

## CCCCCCCCCCCC1CC(=O)N2CCCC2C(=O)NC(CO)C(=O)N2CCCC2C(=O)NC(CCCNC(=N)N)C(=O)NC(C(O)C(=O)O)C(=O)NC(CO)C(=O)N2CCC(O)C2C(=O)NC(C(O)C(=O)O)C(=O)O1 (stereo not drawn) [Bu-2517] (PSPR[ξAsp(3ξ-OH)]S[X1][ξAsp(3ξ-OH)]; linker N-C via X2; configuration not given here)
Veillonella species
  inhibition of two strains of Veillonella species: inhibited at low concentration
Blood levels in mice; intramuscular administration of 30 mg/kg
  blood level after 7 hours: measurable blood level was still observed
Blood levels in mice; intramuscular dose 10 mg/kg
  AUC* (mcg.hr/ml), area under curve: 40 µg·h/mL
  Half life: 1.6 h
Blood levels in mice; intramuscular dose 10 mg/kg, 10 min
  Blood levels: 11000 ng/mL
Blood levels in mice; intramuscular dose 10 mg/kg, 20 min
  Blood levels: 13000 ng/mL
Blood levels in mice; intramuscular dose 10 mg/kg, 30 min
  Blood levels: 14000 ng/mL
Blood levels in mice; intramuscular dose 10 mg/kg, 45 min
  Blood levels: 14000 ng/mL
Blood levels in mice; intramuscular dose 10 mg/kg, 1 hr
  Blood levels: 13000 ng/mL
Blood levels in mice; intramuscular dose 10 mg/kg, 1.5 hr
  Blood levels: 11000 ng/mL
Blood levels in mice; intramuscular dose 10 mg/kg, 2 hr
  Blood levels: 8900 ng/mL
Blood levels in mice; intramuscular dose 10 mg/kg, 3 hr
  Blood levels: 5300 ng/mL
Blood levels in mice; intramuscular dose 10 mg/kg, 5 hr
  Blood levels: < 2000 ng/mL
Blood levels in mice; intramuscular dose 30 mg/kg
  AUC* (mcg.hr/ml), area under curve: 137 µg·h/mL
  Half life: 1.8 h
Blood levels in mice; intramuscular dose 30 mg/kg, 10 min
  Blood levels: 22000 ng/mL
Blood levels in mice; intramuscular dose 30 mg/kg, 20 min
  Blood levels: 32000 ng/mL
Blood levels in mice; intramuscular dose 30 mg/kg, 30 min
  Blood levels: 48000 ng/mL
Blood levels in mice; intramuscular dose 30 mg/kg, 45 min
  Blood levels: 41000 ng/mL
Blood levels in mice; intramuscular dose 30 mg/kg, 1 hr
  Blood levels: 36000 ng/mL
Blood levels in mice; intramuscular dose 30 mg/kg, 1.5 hr
  Blood levels: 35000 ng/mL
Blood levels in mice; intramuscular dose 30 mg/kg, 2 hr
  Blood levels: 28000 ng/mL
Blood levels in mice; intramuscular dose 30 mg/kg, 3 hr
  Blood levels: 18000 ng/mL
Blood levels in mice; intramuscular dose 30 mg/kg, 5 hr
  Blood levels: 8900 ng/mL
Blood levels in mice; intramuscular dose 30 mg/kg, 7 hr
  Blood levels: 3800 ng/mL
Blood levels in mice; intramuscular dose 100 mg/kg
  AUC* (mcg.hr/ml), area under curve: 460 µg·h/mL
  Half life: 3.7 h
Blood levels in mice; intramuscular dose 100 mg/kg, 15 min
  Blood levels: 45000 ng/mL
Blood levels in mice; intramuscular dose 100 mg/kg, 30 min
  Blood levels: 45000 ng/mL
Blood levels in mice; intramuscular dose 100 mg/kg, 1 hr
  Blood levels: 47000 ng/mL
Blood levels in mice; intramuscular dose 100 mg/kg, 3 hr
  Blood levels: 55000 ng/mL
Blood levels in mice; intramuscular dose 100 mg/kg, 7 hr
  Blood levels: 23000 ng/mL
Blood levels in mice; intramuscular dose 100 mg/kg, 10 hr
  Blood levels: 15000 ng/mL
Blood levels in mice; intramuscular dose 100 mg/kg, 24 hr
  Blood levels: < 300 ng/mL
Blood levels in mice; intravenous dose 10 mg/kg
  AUC* (mcg.hr/ml), area under curve: 39 µg·h/mL
  Half life: 0.81 h
Blood levels in mice; intravenous dose 10 mg/kg, 1 min after administration
  Blood levels: 70000 ng/mL
Blood levels in mice; intravenous dose 10 mg/kg, 5 min
  Blood levels: 41000 ng/mL
Blood levels in mice; intravenous dose 10 mg/kg, 10 min
  Blood levels: 33000 ng/mL
Blood levels in mice; intravenous dose 10 mg/kg, 20 min
  Blood levels: 23000 ng/mL
Blood levels in mice; intravenous dose 10 mg/kg, 30 min
  Blood levels: 18000 ng/mL
Blood levels in mice; intravenous dose 10 mg/kg, 45 min
  Blood levels: 18000 ng/mL
Blood levels in mice; intravenous dose 10 mg/kg, 1 hr
  Blood levels: 14000 ng/mL
Blood levels in mice; intravenous dose 10 mg/kg, 1.5 hr
  Blood levels: 7900 ng/mL
Blood levels in mice; intravenous dose 10 mg/kg, 2 hr
  Blood levels: 5600 ng/mL
Blood levels in mice; intravenous dose 10 mg/kg, 3 hr
  Blood levels: 3100 ng/mL
Blood levels in mice; intravenous dose 30 mg/kg
  AUC* (mcg.hr/ml), area under curve: 163 µg·h/mL
  Half life: 0.87 h
Blood levels in mice; intravenous dose 30 mg/kg, 1 min after administration
  Blood levels: 224000 ng/mL
Blood levels in mice; intravenous dose 30 mg/kg, 5 min
  Blood levels: 162000 ng/mL
Blood levels in mice; intravenous dose 30 mg/kg, 10 min
  Blood levels: 131000 ng/mL
Blood levels in mice; intravenous dose 30 mg/kg, 20 min
  Blood levels: 68000 ng/mL
Blood levels in mice; intravenous dose 30 mg/kg, 30 min
  Blood levels: 73000 ng/mL
Blood levels in mice; intravenous dose 30 mg/kg, 45 min
  Blood levels: 64000 ng/mL
Blood levels in mice; intravenous dose 30 mg/kg, 1 hr
  Blood levels: 50000 ng/mL
Blood levels in mice; intravenous dose 30 mg/kg, 1.5 hr
  Blood levels: 32000 ng/mL
Blood levels in mice; intravenous dose 30 mg/kg, 2 hr
  Blood levels: 23000 ng/mL
Blood levels in mice; intravenous dose 30 mg/kg, 3 hr
  Blood levels: 14000 ng/mL
Blood levels in mice; intravenous or intramuscular administration
  absorption, parenterally: well absorbed
Blood levels in mice; oral
  absorption when administered orally: not absorbed
